Consider 1 sequence from patent US9540418B2, “Polypeptide specifically binding to rare earth nanoparticles and use thereof” (University of Science and Technology of China, priority 2012, dated 2017).

Series [1] concerns HeLa cells. The series is described as follows: Effect of RE-1 analogues on cytotoxicity induced by UCN, UCP (MTT, PI staining). Type of series: cell-based. The note with it: 1 mg/mL, 24 hr. The procedure:
MTT cell vitality assay is performed as follows: The cells to which samples have been added are cultured for 24 hr, and then 0.5 mg/mL MTT solution is added and cultured for 4 hr. The MTT solution in the well is discharged, and then 200 μL DMSO is added, followed by gently shaking the plate on a shaking table for 10 min. Detection is performed using microplate reader (ELX800, purchased from BIO-TEK) at a wavelength of 570 nm.
PI staining assay is performed as follows: The cells to which samples have been added are cultured for 24 hr, and then to the culture Hoechst 33342 (10 mM, purchased from Sigma, USA, Catalog #: B2261) and PI (Propidium Iodide) (10 mM, purchased from Beyotime Biotechnology, Catalog #: ST511) are added for 10 min of staining. Then, the cells are detected and photographed under a fluorescence microscope (Olympus IX71, purchased from Olympus). The number of the cells counted by this assay was 500.
HeLa cells were inoculated into 96-well cell culturing plate at a density of about 1-2×10^4 cells/well, and cultured overnight for further use. At first, the medium was replaced with fresh DMEM medium, and then 1 mg/mL UCN, UCP, UCN+PEG (containing 10 mg PEG), UCN+RE-1, UCP, UCP+RE-1, UCN+RE-2, UCN+RE-3, UCN+RE-5, UCP+RE-2, UCP+RE-3, or UCP+RE-5 were added, respectively. After culturing for 24 hr, MTT cell viability assay and PI staining were performed to detect the mortality of the cells.

The nature of series [2]: Dissociation of FITC-RE-1 from UCN over time. Type of series: binding. Particulars: after 48 h, 37° C., shaking. As for the experimental part: 250 μg FITC-RE-1 was thoroughly mixed with 500 μg UCN. The excess and unbound polypeptides were washed off. Then, the mixture was divided into five aliquots. The aliquots were gently shaked on a shaking table at 37° C. The amount of FITC-RE-1 dissociated in the supernatants was measured by using a fluorescence spectrophotometer at different time points (0 hr, 2 hr, 12 hr, 24 hr, and 48 hr).

A further series deals with mice liver. Briefly: Autophagosome formation in mice livers by transmission electron microscope. The note with it: RE-1 with UCN, PEG with UCN, AP-1 with UCP. Type of series: in vivo, Balb/c mice. As for the experimental part:
Balb/c mice (purchased from SLAC Laboratory Animal (Shanghai, China), 6 weeks old, and weighed 20 g when used) were bred in a sterile housing, and then 300 μg (dosage: 15 mg/kg) UCN, UCN+PEG (containing 10 mg PEG), UCN+RE-1, UCP, UCP+RE-1, or UCP+AP-1 was injected through tail vein. An equal volume of normal saline was injected as a control. After 24 hr, the livers of the mice were removed and subjected to western blotting assay.
The mice livers obtained as described in Example 21 were in situ fixed with 2.5% glutaral-dimethyl arsine buffer (pH 7.4) at 4° C. for 1 hr, then fixed with 2% osmium tetroxide at room temperature for 1 hr, and then dehydrated with ethanol gradients. Then, the cell samples were embedded into epoxy resin (EPON812). The embedded cell samples were cut into ultrathin slices, which were stained with uranyl acetate and lead citrate, and observed and imaged under a transmission electron microscope (JEOL-1230, JEOL, Japan).

For series [3], the system named is HeLa cells. Briefly: Diffusibility / adherence on coverslip with cells facing upward or downward. It is filed as cell-based. The procedure:
HeLa cells were cultured on a coverslip (22 mm×22 mm), which was then placed into a 6-well plate with the cells facing upward or downward, and the coverslip was supported by a sterilized glass cube (2 mm×2 mm×2 mm). Then, 4 mL DMEM medium (Gibco) containing the rare-earth upconversion nanophosphors (UCN, UCP) with or without RE-1 coating was slowly poured into the 6-well plate, such that the cells were fully immersed in the medium, and the coverslip is just located at the middle of the height of the liquid. The cells were placed into a cell incubator at 37° C. for 2 hr, and then washed with PBS 3 times. The UCNs adhered to the surfaces of the cells were observed under a fluorescence microscope (Olympus IX71, Olympus, Japan) equipped with a 980-nm infrared laser (MDL-980 nm 1 W, Changchun New Industries Optoelectronics Tech. Co., Ltd, China).

On to “ACTARSPWICG [RE-1, RE-0 with terminal amino acids A and G added]”, for which the “inhibitory effect of coating on cytotoxicity induced by UCN and UCP” value with HeLa cells [1] is listed as “RE-1>RE-3>RE-5”. Also, the “dissociation from UCN” value in series [2] is recorded as “less than 0.7%”. Besides, the “inhibition of autophagosome formation induced by nanophosphors (UCN, UCP) in liver” value with mice liver was “significantly inhibited”. Besides, the “amount of nanophosphors (UCN, UCP) coated with RE-1 adhered to the cell surfaces” value in the series on HeLa cells [3] (cell-facing-upward group, 37° C., 2 hr) is reported as “significantly reduced”. For the same sequence, in the series with HeLa cells [3] (cells facing upward versus downward), the “diffusibility of the rare-earth upconversion nanophosphors (UCN, UCP) in solution” value is “reduced the diffusibility”.
